Tests used:
Assay in all cases: Antimicrobial Susceptibility Test (CLSI), Test Example 2
Type in all cases: cell-based
Parameters in all cases: unit not given here
[1] = test system: A. baumannii FSAb-029; settings: Table 4; strain produces OXA-2, IMP-1
Description: (§1) Antimicrobial Susceptibility Test was performed by the CLSI (Clinical and Laboratory Standards Institute) methods. The agar dilution method for determining antimicrobial susceptibility was carried out using Mueller Hinton-II agar and the amount of inoculation was 10^4CFU/spot. Broth dilution tests were performed using the Mueller Hinton-II broth. All assays were run with the indicated control strains, available from the ATCC (American Type Culture Collection, Rockville, Md.).

[2] = test system: A. baumannii FSAb-039; settings: Table 4; strain produces OXA-51
Description: as §1

[3] = test system: A. baumannii FSAb-056; settings: Table 4; strain produces OXA-23, OXA-51
Description: as §1

[4] = test system: A. baumannii FSAb-065; settings: Table 4; strain produces OXA-2, VIM-2
Description: as §1

[5] = test system: E. coli FSEco-054; settings: Table 4; strain produces ESBL
Description: as §1

[6] = test system: K. pneumoniae ATCC BAA-1904; settings: Table 4; strain produces KPC-3
Description: as §1

[7] = test system: P. aeruginosa FSPa-121; settings: Table 4; strain produces OXA-17
Description: as §1

Compound	antimicrobial susceptibility, A. baumannii FSAb-029 [1]	antimicrobial susceptibility, A. baumannii FSAb-039 [2]	antimicrobial susceptibility, A. baumannii FSAb-056 [3]	antimicrobial susceptibility, A. baumannii FSAb-065 [4]	antimicrobial susceptibility, E. coil FSEco-054 [5]	antimicrobial susceptibility, K. pneumoniae BAA-1904 [6]	antimicrobial susceptibility, P. aeruginosa FSPa-121 [7]
C[C@@H](O)[C@H]1C(=O)N2C(C(=O)O)=C(CN(C)CCNC(=O)c3ccc(Cl)cc3)[C@H](C)[C@H]12 [Compound 14]	>32	>32	>32	>32	>32	16	>32
C[C@@H](O)[C@H]1C(=O)N2C(C(=O)O)=C(CN(C)CCNC(=O)c3cccc(O)c3Cl)[C@H](C)[C@H]12 [Compound 11]	32	>32	32	32	>32	8	>32
C[C@@H](O)[C@H]1C(=O)N2C(C(=O)O)=C(CN3CC(NC(=O)c4ccc(O)c(O)c4Cl)C3)[C@H](C)[C@H]12 [Compound 38]	0.5	4	4	0.25	2	16	4
C[C@@H](O)[C@H]1C(=O)N2C(C(=O)O)=C(CN(C)CCNC(=O)c3ccc(O)cc3)[C@H](C)[C@H]12 [Compound 10]	16	>32	16	16	>32	8	>32
C[C@@H](O)[C@H]1C(=O)N2C(C(=O)O)=C(CN(C)CC(=O)NCc3ccc(O)c(O)c3Cl)[C@H](C)[C@H]12 [Compound 21]	8	8	8	2	4	8	2
C[C@@H](O)[C@H]1C(=O)N2C(C(=O)O)=C(CN3CCCC3CNC(=O)c3ccc(O)c(O)c3Cl)[C@H](C)[C@H]12 (stereo partly shown) [Compound 35]	4	8	4	2	2	>32	4
C[C@@H](O)[C@H]1C(=O)N2C(C(=O)[O-])=C(C[N+](C)(C)CCNC(=O)c3ccc(O)c(O)c3Cl)[C@H](C)[C@H]12 [Compound 40]	8	16	8	4	4	16	4
C[C@@H](O)[C@H]1C(=O)N2C(C(=O)O)=C(CN3CC(C(=O)NCc4ccc(O)c(O)c4Cl)C3)[C@H](C)[C@H]12 [Compound 39]	4	8	8	1	2	8	16
C[C@@H](O)[C@H]1C(=O)N2C(C(=O)O)=C(CN(C)CCNC(=O)c3cccc(O)c3F)[C@H](C)[C@H]12 [Compound 12]	32	>32	32	32	>32	4	>32
C[C@@H](O)[C@H]1C(=O)N2C(C(=O)O)=C(CN(C)CC(NC(=O)c3ccc(O)c(O)c3Cl)C(N)=O)[C@H](C)[C@H]12 (stereo partly shown) [Compound 18]	8	4	4	1	2	16	2
C[C@@H](O)[C@H]1C(=O)N2C(C(=O)O)=C(CN(C)CCNC(=O)c3ccccc3Cl)[C@H](C)[C@H]12 [Compound 13]	32	>32	32	16	>32	8	>32
C[C@@H](O)[C@H]1C(=O)N2C(C(=O)O)=C(CN(C)CCNC(=O)c3ccc(OC(=O)C(C)(C)C)c(OC(=O)C(C)(C)C)c3Cl)[C@H](C)[C@H]12 [Compound 16]	4	8	8	8	8	>32	8
C[C@@H](O)[C@H]1C(=O)N2C(C(=O)O)=C(CN3CC[C@@H](NC(=O)c4ccc(O)c(O)c4Cl)C3)[C@H](C)[C@H]12 [Compound 29]	1	8	4	1	2	>32	2
C[C@@H](O)[C@H]1C(=O)N2C(C(=O)O)=C(CN3CCC(C(=O)NCc4ccc(O)c(O)c4Cl)C3)[C@H](C)[C@H]12 (stereo partly shown) [Compound 37]	8	32	16	4	8	>32	8
C[C@@H](O)[C@H]1C(=O)N2C(C(=O)O)=C(CN3CC[C@H](NC(=O)c4ccc(OCc5ccccc5)c(OCc5ccccc5)c4Cl)C3)[C@H](C)[C@H]12 [Compound 28]	0.5	8	4	0.5	2	>32	2
C[C@@H](O)[C@H]1C(=O)N2C(C(=O)O)=C(CN3C[C@H](NC(=O)c4ccc(O)c(O)c4Cl)[C@@H](O)C3)[C@H](C)[C@H]12 [Compound 30]	2	4	4	0.5	2	16	2
C[C@@H](O)[C@H]1C(=O)N2C(C(=O)O)=C(CN3C[C@@H](NC(=O)c4ccc(O)c(O)c4Cl)C[C@@H]3C(N)=O)[C@H](C)[C@H]12 [Compound 33]	4	32	8	1	4	>32	2
C[C@@H](O)[C@H]1C(=O)N2C(C(=O)O)=C(CN(C)CCNC(=O)c3ccc(O)c(O)c3F)[C@H](C)[C@H]12 [Compound 2]	2	4	2	2	2	16	2
C[C@@H](O)[C@H]1C(=O)N2C(C(=O)O)=C(CN(C)CCNC(=O)c3cc(O)c(O)c(F)c3)[C@H](C)[C@H]12 [Compound 7]	2	4	2	2	2	16	2

Reference: US10933051B2, “Carbapenem compounds and compositions for the treatment of bacterial infections” (FOB Synthesis, Inc., priority 2017, dated 2021)
